{"source": "paper PMC9108603", "about": "“Microbial Metabolite Inspired β‐Peptide Polymers Displaying Potent and Selective Antifungal Activity” (Advanced Science, 2022)", "key": {"[1]": {"tested_on": "C. albicans", "assay": "MIC assay (in vitro antifungal assay)", "type": "cell-based, Candida albicans", "settings": "for MIC: Candida albicans", "protocol": "(§1) In vitro antifungal assays. The MIC assays for C. albicans (K1, SC5314, Gu5, ATCC90028, R01, R02, R03 and R04 strains) and C. neoformans (H99, MYA737 and JEC21 strains) were conducted according to a previously described protocol. The cultured fungal cells were collected at 2.5 × 10^3 CFU/mL in RPMI 1640 medium to give the working suspension. Two- […]\nThen 50 µL of the cell suspension was added to each well. Wells containing cells in RPMI without any polymer or antifungal drug were used as drug-free controls, and wells containing RPMI medium only were used as cell-free controls. The plate was gently stirred for 10 seconds and then incubated at 30 °C. After C. albicans and C. neoformans cells were incubated for 24 h and 48 h, respectively, fungal cell growth was checked visually. […]"}, "[2]": {"tested_on": "C. albicans and C. neoformans", "assay": "MIC/MFC, summary over all fungal strains", "type": "cell-based, Candida albicans, Cryptococcus neoformans", "protocol": "as §1\nplate to give 50 µL compound solution in each well. Then 50 µL of the cell suspension was added to each well. Wells containing cells in RPMI without any polymer or antifungal drug were used as drug-free controls, and wells containing RPMI medium only were used as cell-free controls. The plate was gently stirred for 10 seconds and then incubated at 30 °C. After C. albicans and C. neoformans cells were incubated for 24 h and 48 h, respectively, fungal cell growth was checked visually. The MIC values were identified as the lowest concentration […]\nC. albicans . The MFC assay for Candida and Cryptococcus was conducted after the MIC test.\nAn aliquot of 3 µL premixed suspension from each well was plated on the yeast extract-peptone-dextrose (YPD) agar. The plates were incubated at 30 °C for 24 h and 48 h, respectively, for C. albicans cells and C. neoformans cells. Then the plate was inspected visually for colony formation. […]"}, "[3]": {"tested_on": "C. albicans SC5314", "assay": "Biofilm-induced fungal keratitis model", "type": "in vivo, mouse (male BALB/c)", "settings": "10 μL every 5 min for 1 h, then every 30 min for 7 h, versus saline, n = 10", "protocol": "Medicine (Accreditation number of the laboratory: SHDSYY-2021-1729). The experiment […]\nmethod. […] AmpB was\n(2.5% DMSO in final solution).\nThe organs (kidney, liver, and\n14th day for histological analysis and blood biochemistry analysis.\n30 min during the next 7 h.\nC. albicans biofilm formation on contact lenses. The contact lenses (Biomedic ®, Cooper […]\nThen the discs were transferred to a […]\nand incubated at rt with shaking at 100 rpm. After 6 hours of incubation, the suspension was […]\naddition of 150 μL fresh RPMI medium into each well. […]\nAll mice were killed and the eyeballs of each mouse were collected immediately 30 min after the administration of the last eye drop. Ten eyeballs from each group were homogenized for quantitative analysis of fungal counts with the number of CFUs expressed as mean log (CFU per eye), and the remaining four eyeballs were collected for histological analysis. […]\nAfter incubation for 24 h at 30 °C, the colonies were counted and the number of CFUs was […]\nexpressed as mean log 10 (CFU per eye). […]\nStatistical Analysis. […] Significance between two groups was determined by two-tailed t-test. […] All results were expressed as mean values ± s.d. n = 3 for each in vitro statistical analysis. n = 8 or 10 for each in vivo statistical analysis. […]"}, "[4]": {"tested_on": "ICR mice", "assay": "In vivo acute toxicity, single IV injection", "method": "In vivo acute toxicity. All animal procedures were performed in accordance with the\nGuidelines for Care and Use of Laboratory Animals of the Shanghai Tenth People’s Hospital\n(License number: SYXK( 沪)-2021-0012), and experiments were approved by the Animal\nEthics Committee of the Shanghai Tenth People’s Hospital, Tongji University School of\nwas performed on 6-weeks old female ICR mice (n = 10) using the previously reported\nprepared in DMSO and further diluted into sterile saline to a final concentration of 0.3 mg/mL\nand 3 mg/kg, respectively, and mice injected with saline were used as controls. After a single\ninjection, all survival mice were weighed daily for 14 days. The organs (kidney, liver, and\nspleen) (n = 2) and blood of mice treated by PDAP 20 or saline (n = 8) were collected on the"}}, "note": "Where two headings read alike, the source gives them in different places."}
{"compound": "C[C@@H]1[C@H](O)[C@@H](C)/C=C/C=C/C=C/C=C/C=C/C=C/C=C/[C@H](O[C@@H]2O[C@H](C)[C@@H](O)[C@H](N)[C@@H]2O)C[C@@H]2O[C@](O)(C[C@@H](O)C[C@@H](O)[C@H](O)CC[C@@H](O)C[C@@H](O)CC(=O)O[C@H]1C)C[C@H](O)[C@H]2C(=O)O", "note": "[AmpB, amphotericin B]", "values": [{"measurement": "MIC", "setting": "[1]; 24 h, read-out: MIC C. albicans R01", "result": 1.2, "unit": "µg/mL"}, {"measurement": "MIC", "setting": "[1]; 24 h, read-out: MIC C. albicans R04", "result": 1.6, "unit": "µg/mL"}, {"measurement": "MIC", "setting": "[1]; ATCC90028, 24 h, read-out: MIC C. albicans ATCC90028", "result": 1.6, "unit": "µg/mL"}, {"measurement": "MIC", "setting": "[1]; SC5314, 24 h, read-out: MIC C. albicans SC5314", "result": 1.6, "unit": "µg/mL"}, {"measurement": "MIC against all strains of C. albicans and C. neoformans (range)", "setting": "[2]", "result": "1.2 to 3.1", "unit": "µg/mL"}, {"measurement": "Reduction of colonies, log CFU per eye", "setting": "[3]; AmpB 1 mg mL^−1 eye drops", "result": 1.8, "unit": "log CFU per eye"}, {"measurement": "Mice died within 48 h", "setting": "[4]; single IV dose of 3 mg kg^−1, ICR mice, n = 10", "result": 90, "unit": "%"}]}
{"compound": "poly(DL‐diaminopropionic acid) [PDAP20]", "values": [{"measurement": "MIC at high fungal cell concentration (TEM conditions)", "setting": "[1]; 1.0 × 10^8 CFU mL^−1, fungal species not stated at the place", "result": 50, "unit": "µg/mL"}, {"measurement": "MIC at high fungal cell concentration (other mechanism experiments)", "setting": "[1]; 3.0 × 10^6 CFU mL^−1, fungal species not stated at the place", "result": 12.5, "unit": "µg/mL"}, {"measurement": "Effect of increasing K+ on antifungal activity", "setting": "[1]; K+ up to 20 × 10^−3 M, C. albicans K1", "result": "didn't affect"}, {"measurement": "MIC C. albicans K1, standard MIC test in RPMI 1640", "setting": "[1]; Na+ 103 mM, K+ 5.4 mM", "result": 0.8, "unit": "µg/mL"}, {"measurement": "MIC C. albicans K1, K+ ↑", "setting": "[1]; Na+ 103 mM, K+ 10 mM", "result": 0.8, "unit": "µg/mL"}, {"measurement": "MIC C. albicans K1, K+ ↑", "setting": "[1]; Na+ 103 mM, K+ 20 mM", "result": 0.8, "unit": "µg/mL"}, {"measurement": "MIC C. albicans K1, physiological salt concentration", "setting": "[1]; Na+ 150 mM, K+ 5.4 mM", "result": 1.6, "unit": "μg/mL"}, {"measurement": "MIC C. albicans K1, Na+ ↑", "setting": "[1]; Na+ 200 mM, K+ 5.4 mM", "result": 3.1, "unit": "µg/mL"}, {"measurement": "MIC C. albicans K1, Na+ ↑", "setting": "[1]; Na+ 300 mM, K+ 5.4 mM", "result": 6.3, "unit": "µg/mL"}, {"measurement": "MIC C. albicans K1, Na+ ↑, K+ ↑", "setting": "[1]; Na+ 300 mM, K+ 20 mM", "result": 6.3, "unit": "µg/mL"}, {"measurement": "MIC C. albicans K1 on increase of Na+ (range)", "setting": "[1]; Na+ from 150 × 10^−3 to 300 × 10^−3 M", "result": "1.6 to 6.3", "unit": "µg/mL"}, {"measurement": "MIC against all strains of C. albicans and C. neoformans (range)", "setting": "[2]", "result": "0.1 to 0.8", "unit": "µg/mL"}, {"measurement": "Reduction of colonies, log CFU per eye", "setting": "[3]; PDAP20 15 mg mL^−1 eye drops", "result": 1.2, "unit": "log CFU per eye"}, {"measurement": "Survival after IV injection", "setting": "[4]; single IV dose of 100 mg kg^−1, ICR mice, n = 10, 14 days", "result": "all mice survived"}, {"measurement": "Body weight", "setting": "[4]; single IV dose of 100 mg kg^−1, daily for 14 days, n = 10", "result": "normal body weight compared to the saline group"}, {"measurement": "H&E histology of kidney, liver and spleen", "setting": "[4]; single IV dose of 100 mg kg^−1, day 14, n = 2", "result": "no obvious toxicity on major organs"}, {"measurement": "Blood biochemistry (K+, Na+, ALT, AST, BUN, CREA)", "setting": "[4]; single IV dose of 100 mg kg^−1, day 14, n = 8", "result": "did not cause significant changes in blood biochemical indicators"}]}
